Measurements: patent publication US20070015733A1, “Aryl Phosphate Derivatives of d4T having Activity Against Resistant HIV Strains” (Parker Hughes Institute, priority 1998, published 2007)
Read-outs that look alike come from different tables or passages of the source.

How the values were obtained:
[1] = test system: HIV-1 (HTLVIIIB) in TK-deficient CEM T-cells; assay: Inhibition of HIV-1 replication in TK-deficient CEM T-cells (p24 / RT activity); format: cell-based
[2] = Microculture tetrazolium assay (MTA) cytotoxicity in PBMNC; details: human
Procedure: Percent inhibition of viral replication was calculated by comparing the p24 and RT activity values from the test substance-treated infected cells with those from untreated infected cells. In parallel, the cytotoxicity of the compounds was examined using a microculture tetrazolium assay (MTA) of cell proliferation, as described.in the Zarling, Enrice, and Uckun articles Supra).
Cellular Assays of Anti-HIV Activity and Cytotoxicity. […] Percent viral inhibition was calculated by comparing the RT activity values from the test substance-treated infected cells with RT values from untreated infected cells (i.e., virus controls).
(§1) Antiviral susceptibility assays. Phenotypic drug susceptibility studies of HIV-1 isolates and strains were performed by measuring the production of the p24 gag protein in peripheral blood mononuclear cells (PBMC) from seronegative healthy volunteers in the presence of increasing concentrations of the anti-HIV agent using the quantitative Coulter HIV-1 p24 antigen ezyme immunoassay (EIA) and HIV-1 p24 Antigen Kinetic Standard (Beckman Coulter), as previously described (Uckun, 1998, Antimicrobial Agents and Chemotherapy 37(4): 835-38). Informed consent was obtained from the blood donors according to DHHS guidelines using consent forms approved by the Institutional Review Board. In brief, PBMC were cultured for 72 h in RPMI 1640 medium (Gibco) supplemented with 20% (vol/vol) heat-inactivated fetal bovine serum, 5% human interleukin-2 (Zeptometrix), 2 mM L-glutamine, 25 mM HEPES, 2 g/L NaHCO3, 100 U/ml penicillin/streptomycin (Gibco), 50 μg/ml gentamicin (Gibco), and 5 μg/ml phytohemagglutinin-P (PHA-P) (Sigma) for 24-72 hours prior to exposure to HIV at a multiplicity of infection of 0.001-0.1 during a 1-h adsorbtion period at 37±1° C. in a humidified 5-7% CO2 atmosphere. Subsequently, cells were cultured in 96-well microtiter plates (100 μl/well; 2×10^6 cells/ml, triplicate wells) in the presence of the anti-HIV agents at 6-7 different concentrations ranging from 0.0001 μM to 100 μM, and 25 μL aliquots of culture supernatants were removed from the wells on day 6 after infection for p24 EIA, as previously described (Uckun, 1998, Antimicrobial Agents and Chemotherapy, 37(4):835-38). Controls included uninfected and untreated cells (background control) and infected but untreated (virus control) cells. The p24 EIA utilizes a murine monoclonal antibody to HIV core protein used to coat microwell strips to which the antigen present in the test culture supernatant samples binds. Percent inhibition of viral replication was calculated by comparing the p24 values from the test substance-treated infected cells with p24 values from untreated infected cells (i.e., virus controls). The IC50 values were determined using the Statview statistics program (SAS Institute, Inc.). In parallel, the effects of various treatments on cell viability were also examined as previously described (Uckun, 1998, Antimicrobial Agents and Chemotherapy, 42:383-388). In brief, noninfected PBMC were treated with each compound for 5 days under identical experimental conditions. A microculture tetrazolium assay (MTA) was performed to quantitate cellular proliferation (Uckun, 1998, Antimicrobial Agents and Chemotherapy, 42:383-388).
In parallel, the cytotoxicity of the compounds was examined using a microculture tetrazolium assay (MTA) of cell proliferation, as described (in the Zarling, Enrice, and Uckun articles Supra).

[3] = test system: HIV-1 RT-MDR (NRTI-resistant, NNRTI-resistant); assay: p24 antigen assay, RT-MDR strain; format: cell-based
[4] = test system: Zidovudine-Sensitive Primary Clinical HIV-1 Isolates; assay: p24 drug susceptibility assay, zidovudine-sensitive primary clinical HIV-1 isolates in PBMC; format: cell-based; details: Human immunodeficiency virus 1, PBMC
Procedure: as §1
Phenotypic drug susceptibility studies of HIV-1 isolates and strains were performed by measuring the production of the p24 gag protein in peripheral blood mononuclear cells (PBMC) from seronegative healthy volunteers in the presence of increasing concentrations of the anti-HIV agent using the quantitative Coulter HIV-1 p24 antigen enzyme immunoassay (EIA) and HIV-1 p24 Antigen Kinetic Standard (Beckman Coulter), as previously described. StatView was used in the calculation of the IC50 values from each set of triplicate wells using the linearized form of an exponential equation (lnY=lnb0+b1X; where Y=% inhibition, X=drug concentration). The inhibition constants were log10 transformed to homogenize the variances within each group. […] P-values below 0.05 were deemed significant (JMP Software, SAS).

[5] = test system: zidovudine-resistant primary clinical HIV-1 isolates in CD4-expressing HeLa cell line HT4-6C; assay: Syncytial focus (plaque) formation assay in HT4-6C cells; format: cell-based; details: Human immunodeficiency virus 1, HeLa
Procedure: Plaque formation assays. The syncytial focus (plaque) assay permits quantitation of infectivity of HIV. In brief, a CD4-expressing HeLa cell line (HT4-6C) (AIDS Research and Reference Reagent Program, NIAID) is cultured in 24-well tissue culture plates at 2.5-3.0×10^4 cells/ml in the presence of virus inoculum (100 plaque forming units) and several concentrations of the antiviral agent. The virus was added first for a 2 hr incubation time prior to addition of the antiviral agents. […] Percent inhibition of plaque formation was calculated by comparing the plaque numbers from the test substance-treated infected cells with the plaque numbers from untreated infected cells (i.e., virus controls).

[6] = test system: NRTI-resistant recombinant HIV-1 isolates; assay: RT activity assay, multi-NRTI-resistant recombinant HIV-1 clones; format: cell-based
[7] = multi-NRTI-resistant clones, IC50 RT

SMILES: COC(=O)C(C)NP(=O)(OC[C@@H]1C=C[C@H](n2cc(C)c(=O)[nH]c2=O)O1)Oc1ccc(Br)cc1 (some centres unmarked) [Compound 1c, d4T-5′-[p-bromo-phenylmethoxyalaninyl phosphate]]
- IC50 ([1]; Human immunodeficiency virus 1, CCRF-CEM, TK-deficient CEM cells, read-out: IC50 value for inhibition of RT activity): 57 nM
- IC50 ([1]; Human immunodeficiency virus 1, CCRF-CEM, TK-deficient CEM cells, read-out: IC50 value for inhibition of p24 production): 44 nM
- IC50 ([1]; Human immunodeficiency virus 1, T-cell, TK-deficient CEM T-cells, Table 5, read-out: CEM IC50 [RT]): 60 nM
- IC50 ([1]; Human immunodeficiency virus 1, T-cell, TK-deficient CEM, unit not printed in Table 2 (0.556 = 556 nM), read-out: IC50 [p24]): 44 nM
- IC50 ([1]; Human immunodeficiency virus 1, T-cell, TK-deficient CEM, unit not printed in Table 2 (2.355 = 2355 nM), read-out: IC50 [RT]): 57 nM
- CC50 at 5 days [2]: > 100000 nM
- IC50 at 5 days [2]: > 10000 nM
- IC50 ([3]; Human immunodeficiency virus 1, MT2, laboratory strain RT-MDR (V106N), MT-2 cells, Table 14): < 1 nM
- IC50 ([3]; Human immunodeficiency virus 1, RT-MDR(Con) control strain (M41L, L74V, T215Y, V106N)): < 1 nM
- IC50 ([3]; Human immunodeficiency virus 1, read-out: IC50 RTMDR, p24): 20 to 60 nM
- IC50 ([3]; read-out: IC50 RTMDR, p24): 21 ± 12 nM
- IC50 ([4]; primary isolate RW/92/8 (V179I), Table 14): 0.0008 µM
- IC50 ([4]; read-out: IC50, μM (p24), Mean ± SE, mean over 10 zidovudine-sensitive clinical isolates): 0.002 ± 0.001 µM
- IC50 ([4]; read-out: IC50, μM (p24), isolate 92BR003 (B/B, Brazil), PBMC): 0.0006 µM
- IC50 ([4]; read-out: IC50, μM (p24), isolate 92BR025 (C/C, Brazil), PBMC): 0.001 µM
- IC50 ([4]; read-out: IC50, μM (p24), isolate 92RW008 (—/A, Rawanda), PBMC): 0.0008 µM
- IC50 ([4]; read-out: IC50, μM (p24), isolate 92RW016 (subtype A/A, Rawanda), PBMC): 0.003 µM
- IC50 ([4]; read-out: IC50, μM (p24), isolate 93BR019 (—/BF, Brazil), PBMC): 0.0008 µM
- IC50 ([4]; read-out: IC50, μM (p24), isolate 93BR020 (F/F, Brazil), PBMC): 0.007 µM
- IC50 ([4]; read-out: IC50, μM (p24), isolate 93BR029 (F/B, Brazil), PBMC): 0.0008 µM
- IC50 ([4]; read-out: IC50, μM (p24), isolate 93IN101 (—/C, India), PBMC): 0.0005 µM
- IC50 ([4]; read-out: IC50, μM (p24), isolate HIV-1G3 (—/G, Nigeria), PBMC): 0.0005 µM
- IC50 ([4]; read-out: IC50, μM (p24), isolate HIV-1JV1083 (—/G, Nigeria), PBMC): 0.001 µM
- IC50 ([5]; read-out: IC50, μM(Plaque Assay), Mean ± SE, mean over 9 zidovudine-resistant isolates): 0.0794 ± 0.0187 µM
- IC50 ([5]; read-out: IC50, μM(Plaque Assay), isolate G190-6 (M41L, D67N, K70R, T215Y, K219Q)): 0.1 µM
- IC50 ([5]; read-out: IC50, μM(Plaque Assay), isolate G691-2 (mutations N.D.)): 0.06 µM
- IC50 ([5]; read-out: IC50, μM(Plaque Assay), isolate G704-2 (M41L, D67N, K70R, L210W, T215Y)): 0.08 µM
- IC50 ([5]; read-out: IC50, μM(Plaque Assay), isolate G780-1 (M41L, D67N, K70R, T215F, K219Q)): 0.015 µM
- IC50 ([5]; read-out: IC50, μM(Plaque Assay), isolate G890-1 (K20R, M41L, D67N, T69N, K70R, L210W, T215Y)): 0.04 µM
- IC50 ([5]; read-out: IC50, μM(Plaque Assay), isolate H112-2 (no RT mutation, ZDV-sensitive control)): 0.015 µM
- IC50 ([5]; read-out: IC50, μM(Plaque Assay), isolate J179-1 (M41L, D67N, L210W, T215Y)): 0.18 µM
- IC50 ([5]; read-out: IC50, μM(Plaque Assay), isolate M709-1 (L1210W, T215Y)): 0.08 µM
- IC50 ([5]; read-out: IC50, μM(Plaque Assay), isolate Q252-2 (M41L, L210W, T215Y)): 0.11 µM
- IC50 ([5]; read-out: IC50, μM(Plaque Assay), isolate U317-8 (M41L, L210W, T215Y)): 0.03 µM
- IC50 ([5]; read-out: mean IC50 value (plaque assay), mean over 9 zidovudine-resistant isolates): 0.0794 ± 0.0187 µM
- IC50 ([6]; Human immunodeficiency virus 1, read-out: IC50 (nM), RT, recombinant clone 1617-1): 5.8 nM
- IC50 ([6]; Human immunodeficiency virus 1, read-out: IC50 (nM), RT, recombinant clone 4755-5): 0.6 nM
- IC50 ([6]; Human immunodeficiency virus 1, read-out: IC50 (nM), RT, recombinant clone 7295-1): 0.2 nM
- IC50 ([6]; Human immunodeficiency virus 1, read-out: IC50 (nM), RT, recombinant clone 7324-1): 0.8 nM
- IC50 ([6]; Human immunodeficiency virus 1, read-out: IC50 (nM), RT, recombinant clone 52534-2): 4.6 nM
- IC50 ([6]; Human immunodeficiency virus 1, read-out: IC50 (nM), RT, recombinant clone 56252-1): 6.3 nM
- IC50 ([6]; Human immunodeficiency virus 1, read-out: mean IC50, RT, mean over 6 multi-NRTI-resistant clones): 3.1 ± 1.2 nM
- logs more potent than lamivudine [6, 7]: > 3.4 logs
- logs more potent than zidovudine(AZT) [6, 7]: > 1.4 logs
